In this assay the target is T1, sodium-proton exchanger of subtype 3 (NHE3) (Homo sapiens, UniProt P48764).
T1 construct: expressed in transfected cells
T1 sequence (P48764 26-834): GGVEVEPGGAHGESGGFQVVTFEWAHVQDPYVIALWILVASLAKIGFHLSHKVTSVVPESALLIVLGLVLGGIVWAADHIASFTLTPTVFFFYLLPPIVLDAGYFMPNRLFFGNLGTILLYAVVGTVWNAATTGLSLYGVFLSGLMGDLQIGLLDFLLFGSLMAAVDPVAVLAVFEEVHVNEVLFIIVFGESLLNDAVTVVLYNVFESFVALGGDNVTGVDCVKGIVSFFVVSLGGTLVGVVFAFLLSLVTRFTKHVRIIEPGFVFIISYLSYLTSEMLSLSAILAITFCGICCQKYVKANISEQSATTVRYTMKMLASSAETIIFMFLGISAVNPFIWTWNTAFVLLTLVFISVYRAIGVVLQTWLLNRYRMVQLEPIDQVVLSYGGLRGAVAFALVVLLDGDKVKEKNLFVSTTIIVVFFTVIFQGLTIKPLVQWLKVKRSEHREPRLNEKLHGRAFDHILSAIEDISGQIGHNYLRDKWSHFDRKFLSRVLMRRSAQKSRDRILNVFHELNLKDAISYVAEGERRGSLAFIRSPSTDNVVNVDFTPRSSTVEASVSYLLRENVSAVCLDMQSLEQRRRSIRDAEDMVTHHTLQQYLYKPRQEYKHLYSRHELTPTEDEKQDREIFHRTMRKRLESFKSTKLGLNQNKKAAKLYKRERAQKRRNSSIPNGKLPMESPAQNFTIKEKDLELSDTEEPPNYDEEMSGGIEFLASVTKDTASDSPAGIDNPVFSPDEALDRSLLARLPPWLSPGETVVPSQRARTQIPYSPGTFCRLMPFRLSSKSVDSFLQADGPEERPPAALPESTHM
Kind of assay: Recovery of intracellular pH (pHi) after acidification in LAP1 cells stably expressing NHE3 (BCECF fluorescence, FLIPR). The assay is classed as cell-based. Particulars: LAP1 cells stably expressing NHE3; pH recovery after acidification; range 1 is % inhibition at 10 μM; read-out: Activity range (inhibitory effect on NHE3).

Protocol: In this assay, the recovery of the intracellular pH (pHi) of LAP1 cells which stably express the sodium-proton exchanger of subtype 3 (NHE3) after acidification was determined. The recovery occurs even under bicarbonate-free conditions with functional NHE3. To this end, the pHi was determined using the pH-sensitive fluorescent dye BCECF (Molecular Probes, Eugene, Oreg., USA, employing the precursors BCECF-AM). The cells were initially incubated with BCECF (5 μM BCECF-AM) in NH4Cl buffer (NH4Cl buffer: 115 mM cholineCl, 20 mM NH4Cl, 5 mM KCl, 1 mM CaCl2, 1 mM MgCl2, 20 mM Hepes, 5 mM glucose, a pH of 7.4 was adjusted with 1 M KOH). The intracellular acidification was induced by washing the cells incubated in NH4Cl buffer with NH4Cl-free buffer (133.8 mM choline chloride, 4.7 mM KCl, 1.25 mM CaCl2, 1.25 mM MgCl2, 0.97 mM K2HPO4, 0.23 mM KH2PO4, 5 mM Hepes, 5 mM glucose, a pH of 7.4 was adjusted with 1 M KOH). After the washing step, 90 μl of the NH4Cl-free buffer were left on the cells. The pH recovery was started by adding 90 μl of Na^+-containing buffer (133.8 mM NaCl, 4.7 mM KCl, 1.25 mM CaCl2, 1.25 mM MgCl2, 0.97 mM Na2HPO4, 0.23 mM NaH2PO4, 10 mM Hepes, 5 mM glucose, a pH of 7.4 was adjusted with 1 M NaOH) in a measuring instrument (FLIPR, “Fluorometric Imaging Plate Reader”, Molecular Devices, Sunnyvale, Calif., USA). The BCECF fluorescence was determined with an excitation wavelength of 498 nm and the FLIPR emission filter 1 (bandpass from 510 to 570 nm). The subsequent changes in fluorescence as a measure of pH recovery were recorded for two minutes. To calculate the NHE3-inhibitory power of the tested substances, the cells were initially investigated in buffers with which complete or absolutely no pH recovery took place. For complete pH recovery (100%), the cells were incubated in Na^+-containing buffer (see above), and to determine the 0% value were incubated in Na^+-free buffer (see above). The substances to be tested were made up in Na^+-containing buffer. The recovery of the intracellular pH at each tested concentration of a substance was expressed as percent of the maximum recovery.
The IC50 of the respective substance for NHE3 was calculated from the percentages of pH recovery using the program XLFit (idbs, Surrey, UK).

Turning to `CC1(C)OC(=O)N(c2ccc(Cl)c(O[C@H]3c4cc(Cl)cc(F)c4C[C@@H]3N3CC[C@@H](O)C3)c2)C1=O` [Example 437, 3-{4-chloro-3-[(1S,2S)-6-chloro-4-fluoro-2-((R)-3-hydroxypyrrolidin-1-yl)indan-1-yloxy]phenyl}-5,5-dimethyloxazolidine-2,4-dione], the IC50 fell in the range of 1000 to 10000 nM.
On the same count and under the same terms, the same measure for `c1cc(O[C@@H]2c3ccccc3C[C@H]2N2C[C@H]3CNC[C@H]3C2)cc(N2CCCCC2)c1` (racemic) [Example 15, 2-[rac-trans-(1,2)-1-(3-piperidin-1-ylphenoxy)indan-2-yl]octahydropyrrolo[3,4-c]pyrrole]: 1000 to 10000 nM.
For the molecule `COc1ccc(O[C@H]2c3ccccc3CC[C@@H]2N2CCC[C@@H](N)C2)c(F)c1` (racemic) [Example 42, (R)-1-[rac-trans-(1,2)-1-(2-fluoro-4-methoxyphenoxy)-1,2,3,4-tetrahydronaphthalen-2-yl]piperidin-3-ylamine], the inhibition at 10 µM was in the range of 20 to 50%.
Turning to `Cn1ccn(-c2ccc(Cl)c(O[C@H]3c4cc(F)cc(F)c4C[C@@H]3N3CC[C@@H](O)C3)c2)c1=O` [Example 338, 1-{4-chloro-3-[(1S,2S)-4,6-difluoro-2-((R)-3-hydroxypyrrolidin-1-yl)indan-1-yloxy]phenyl}-3-methyl-1,3-dihydroimidazol-2-one], the IC50 was 1000 to 10000 nM.
On to `O=[N+]([O-])c1ccc(O[C@H]2c3ccccc3C[C@@H]2N2CCCC2)c(Cl)c1` (racemic) [Example 251, 1-[1-(2-chloro-4-nitrophenoxy)indan-2-yl]pyrrolidine], for which the inhibition at 10 µM is 20 to 50%.
Take `NC(=O)c1ccc(O[C@@H]2c3ccccc3C[C@H]2N2CCC[C@H](N)C2)cc1` (racemic) [Example 537, 4-[rac-trans-(1,2)-2-((S)-3-aminopiperidin-1-yl)indan-1-yloxy]benzamide]: the IC50 was 1000 to 10000 nM.
Same read-out and setting: for `Cc1nnc(C)n1-c1ccc(O[C@H]2c3ccccc3C[C@@H]2N2CCCC2)c(Cl)c1` (racemic) [Example 490, 4-[3-chloro-4-(rac-trans-(1,2)-2-pyrrolidin-1-ylindan-1-yloxy)phenyl]-3,5-dimethyl-4H-[1,2,4]triazole] the value was below 1000 nM.
For the molecule `Cc1cc(F)ccc1O[C@@H]1c2ccccc2C[C@H]1N1C[C@H]2CNC[C@H]2C1` (racemic) [Example 16, 2-[rac-trans-(1,2)-1-(4-fluoro-2-methylphenoxy)indan-2-yl]octahydropyrrolo[3,4-c]pyrrole], the IC50 lay in the range of 1000 to 10000 nM.
For the molecule `Fc1ccc(O[C@H]2c3cc(Cl)cc(Cl)c3C[C@@H]2N2CCCC2)c2ncccc12` [Example 593, 8-((1S,2S)-4,6-dichloro-2-pyrrolidin-1-ylindan-1-yloxy)-5-fluoroquinoline], the inhibition at 10 µM is 20 to 50%.
Regarding `CS(=O)(=O)c1ccc(O[C@H]2c3cc(Cl)cc(Cl)c3C[C@@H]2NC2CCCC2)cc1` [Example 747, Cyclopentyl-[trans-(1S,2S)-4,6-dichloro-1-(4-methanesulfonyl-phenoxy)-indan-2-yl]-amine], the IC50 was 1000 to 10000 nM.
Turning to `Cn1ccn(-c2ccc(F)c(O[C@H]3c4cc(Cl)cc(F)c4C[C@@H]3NC3CCCC3)c2)c1=O` [Example 756, 1-[3-(trans-(1S,2S)-6-Chloro-2-cyclopentylamino-4-fluoro-indan-1-yloxy)-4-fluoro-phenyl]-3-methyl-1,3-dihydro-imidazol-2-one], the IC50 lay in the range of 1000 to 10000 nM.
Still for that read-out and setting: for `Cc1cc(O[C@@H]2c3ccccc3C[C@H]2N2C[C@H]3CNC[C@H]3C2)cc(C)c1C#N` (racemic) [Example 505, 4-[rac-trans-(1,2)-2-(Hexahydropyrrolo[3,4-c]pyrrol-2-yl)indan-1-yloxy]-2,6-dimethylbenzonitrile] the value was 1000 to 10000 nM.
Take `N[C@@H]1CCCN([C@H]2CCc3ccccc3[C@@H]2Oc2ccc(F)cc2F)C1` (racemic) [Example 32, (R)-1-[rac-trans-(1,2)-1-(2,4-difluorophenoxy)-1,2,3,4-tetrahydronaphthalen-2-yl]piperidin-3-ylamine]: the inhibition at 10 µM was in the range of 20 to 50%.
For `NS(=O)(=O)c1ccc(O[C@H]2c3cccc(Cl)c3C[C@@H]2N2CCCC2)cc1` (racemic) [Example 471, 4-(rac-trans-(1,2)-4-chloro-2-pyrrolidin-1-ylindan-1-yloxy)benzenesulfonamide], the inhibition at 10 µM lay within 20 to 50%.
Regarding `COCCN1CCCN([C@H]2Cc3c(Cl)cc(Cl)cc3[C@@H]2Oc2ccc(-c3c(C)noc3C)cc2)CC1` [Example 350, 1-{trans-(1S,2S)-4,6-dichloro-1-[4-(3,5-dimethylisoxazol-4-yl)phenoxy]indan-2-yl}-4-(2-methoxyethyl)-[1,4]diazepane], the IC50 was 1000 to 10000 nM.
Consider `COc1ccc(C)cc1O[C@H]1c2ccccc2CC[C@@H]1N1CCC[C@H](N)C1` (racemic) [Example 157, (S)-1-[rac-trans-(1,2)-1-(2-methoxy-5-methylphenoxy)-1,2,3,4-tetrahydronaphthalen-2-yl]piperidin-3-ylamine], for which the inhibition at 10 µM was in the range of 20 to 50%.
On to `N[C@H]1CCCN([C@@H]2Cc3ccccc3[C@H]2Oc2cccc3ncccc23)C1` (racemic) [Example 194, (S)-1-[rac-trans-(1,2)-1-(quinolin-5-yloxy)indan-2-yl]piperidin-3-ylamine], for which the IC50 was in the range of 1000 to 10000 nM.
For the molecule `CCc1ccc(O[C@@H]2c3ccccc3C[C@H]2N2CCC(CN)CC2)c(C(C)(C)C)c1` (racemic) [Example 609, C-{1-[rac-trans-(1,2)-1-(2-tert-butyl-4-ethylphenoxy)indan-2-yl]piperidin-4-yl}methylamine], the IC50 lay within 1000 to 10000 nM.
On to `N[C@@H]1CCCN([C@H]2CCc3ccccc3[C@@H]2Oc2ccccc2N2CCOCC2)C1` (racemic) [Example 48, (R)-1-[rac-trans-(1,2)-1-(2-morpholin-4-ylphenoxy)-1,2,3,4-tetrahydronaphthalen-2-yl]piperidin-3-ylamine], for which the inhibition at 10 µM fell in the range of 20 to 50%.
Turning to `Cc1c(Cl)cccc1O[C@H]1c2ccccc2CC[C@@H]1N1CCC[C@H](N)C1` (racemic) [Example 160, (S)-1-[rac-trans-(1,2)-1-(3-chloro-2-methylphenoxy)-1,2,3,4-tetrahydronaphthalen-2-yl]piperidin-3-ylamine], the inhibition at 10 µM fell in the range of 20 to 50%.
`Cn1ccn(-c2ccc(F)c(O[C@H]3c4cc(F)cc(F)c4C[C@@H]3N3CC[C@@H](O)C3)c2)c1=O` [Example 317, 1-{3-[(1S,2S)-4,6-difluoro-2-((R)-3-hydroxypyrrolidin-1-yl)indan-1-yloxy]-4-fluorophenyl}-3-methyl-1,3-dihydroimidazol-2-one]: the IC50 lay in the range of 1000 to 10000 nM.
The same measure, in the same setting: the same measure for `CN(C1CCCNC1)[C@@H]1Cc2ccccc2[C@H]1Oc1cccc2[nH]ccc12` (mixture of isomers) [Example 214, [rac-trans-(1,2)-1-(1H-indol-4-yloxy)indan-2-yl]methylpiperidin-3-ylamine]: 1000 to 10000 nM; for `NC(=O)c1cccc(O[C@@H]2c3ccccc3C[C@H]2N2CCC(N)C2)c1` (mixture of isomers) [Example 415, 3-[rac-trans-(1,2)-2-(3-aminopyrrolidin-1-yl)indan-1-yloxy]benzamide]: 1000 to 10000 nM; for `Cc1nnc(C)n1-c1ccc(O[C@H]2c3ccccc3C[C@@H]2N2CCC[C@@H](N)C2)cc1` [Example 121, (R)-1-{trans-(1S,2S)-1-[4-(3,5-dimethyl-[1,2,4]triazol-4-yl)phenoxy]indan-2-yl}piperidin-3-ylamine]: 1000 to 10000 nM.

The record behind these values is patent publication US8822449B2, “Substituted aminoindanes and analogs thereof, and the pharmaceutical use thereof” (Sanofi, priority 2008, dated 2014).
